Source: patent US20140357487A1, “PLANTS HAVING INCREASED TOLERANCE TO HERBICIDES” (BASF SE, priority 2011, published 2014)

Assays:
Assay type in all cases: in vivo, Glycine max
[1] = tested on: transgenic soybean plants, Arabidopsis HPPD, event SDS-9857; assay: Greenhouse testing of transgenic soybean plants, Arabidopsis HPPD; conditions: soybean SDS-9857, 5 days after herbicide treatment, average of 8 T1
Description: (§1) Various methods for the production of stably transformed plants are well known in the art. Coumarone-derivative herbicide tolerant soybean (Glycine max) or corn (Zea mays) plants can be produced by a method described by Olhoft et al. (US patent 2009/0049567). Briefly, HPPD or HST encoding polynucleotides are cloned into a binary vector using standard cloning techniques as described by Sambrook et al. (Molecular cloning (2001) Cold Spring Harbor Laboratory Press). The final vector construct contains an HPPD or HST encoding sequence flanked by a promoter sequence (e.g. the ubiquitin promoter (PcUbi) sequence) and a terminator sequence (e.g. the nopaline synthase terminator (NOS) sequence) and a resistance marker gene cassette (e.g. AHAS) (FIG. 2). Optionally, the HPPD or HST gene can provide the means of selection. Agrobacterium-mediated transformation is used to introduce the DNA into soybean's axillary meristem cells at the primary node of seedling explants. After inoculation and co-cultivation with Agrobacteria, the explants are transferred to shoot induction medium without selection for one week. The explants are subsequently transferred to shoot induction medium with 1-3 μM imazapyr (Arsenal) for 3 weeks to select for transformed cells. Explants with healthy callus/shoot pads at the primary node are then transferred to shoot elongation medium containing 1-3 μM imazapyr until a shoot elongates or the explant dies. After regeneration, transformants are transplanted to soil in small pots, placed in growth chambers (16 hr day/8 hr night; 25° C. day/23° C. night; 65% relative humidity; 130-150 mE m−2 s−1) and subsequently tested for the presence of the T-DNA via Taqman analysis. After a few weeks, healthy, transgenic positive, single copy events are transplanted to larger pots and allowed to grow in the growth chamber. Transformation of corn plants is done by a method described by McElver and Singh (WO 2008/124495). Plant transformation vector constructs containing HPPD or HST sequences are introduced into maize immature embryos via Agrobacterium-mediated transformation. Transformed cells are selected in selection media supplemented with 0.5-1.5 μM imazethapyr for 3-4 weeks. Transgenic plantlets are regenerated on plant regeneration media and rooted afterwards. Transgenic plantlets are subjected to TaqMan analysis for the presence of the transgene before being transplanted to potting mixture and grown to maturity in greenhouse. Arabidopsis thaliana is transformed with HPPD or HST sequences by floral dip method as described by McElver and Singh (WO 2008/124495). Transgenic Arabidopsis plants are subjected to Tag Man analysis for analysis of the number of integration loci. Transformation of Oryza sativa (rice) are done by protoplast transformation as described by Peng et al. (U.S. Pat. No. 6,653,529)
(§2) Transgenic plants expressing heterologous HPPD or HST enzymes are tested for tolerance against coumarone-derivative herbicides in greenhouse experiments.
(§3) For post emergence treatment, the test plants are first grown to a height of 3 to 15 cm, depending on the plant habit, and only then treated with the herbicides. For this purpose, the test plants are either sown directly and grown in the same containers, or they are first grown separately and transplanted into the test containers a few days prior to treatment.
Depending on the species, the plants are kept at 10-25° C. or 20-35° C. […] During this time, the plants are tended and their response to the individual treatments is evaluated. […] Tolerance to coumarone-derivative herbicides can also be assessed in Arabidopsis. In this case transgenic Arabidopsis thaliana plants are assayed for improved tolerance to coumarone-derivative herbicides in 48-well plates. Seeds are surface sterilized by stirring for 5 min in ethanol+water (70+30 by volume), rinsing one time with ethanol+water (70+30 by volume) and two times with a sterile, deionized water. […]

[2] = tested on: transgenic soybean plants, Arabidopsis M335Y, event SDS-9866; assay: Greenhouse testing of transgenic soybean plants, Arabidopsis M335Y; conditions: soybean SDS-9866, 5 days after herbicide treatment, average of 8 T1
Description: as §1, §2, §3
(§4) Depending on the species, the plants are kept at 10-25° C. or 20-35° C. The test period extends over 3 weeks. During this time, the plants are tended and their response to the individual treatments is evaluated. […] Tolerance to coumarone-derivative herbicides can also be assessed in Arabidopsis. In this case transgenic Arabidopsis thaliana plants are assayed for improved tolerance to coumarone-derivative herbicides in 48-well plates. Seeds are surface sterilized by stirring for 5 min in ethanol+water (70+30 by volume), rinsing one time with ethanol+water (70+30 by volume) and two times with a sterile, deionized water. […]

[3] = tested on: soybean plants, wild type (transgene none); assay: Greenhouse testing of soybean plants, wild type; conditions: 5 days after herbicide treatment
Description: as §1, §2, §3, §4

| Structure (SMILES) | Injury evaluation, scale of 1-100, bleaching phenotype ([1]; 2.5 g/ha) | Injury evaluation, scale of 1-100, bleaching phenotype ([1]; 10 g/ha) | Injury evaluation, scale of 1-100, bleaching phenotype ([1]; 40 g/ha) | Injury evaluation, scale of 1-100, bleaching phenotype ([2]; 2.5 g/ha) | Injury evaluation, scale of 1-100, bleaching phenotype ([2]; 10 g/ha) | Injury evaluation, scale of 1-100, bleaching phenotype ([2]; 40 g/ha) | Injury evaluation, scale of 1-100, bleaching phenotype ([3]; 2.5 g/ha) | Injury evaluation, scale of 1-100, bleaching phenotype ([3]; 10 g/ha) | Injury evaluation, scale of 1-100, bleaching phenotype ([3]; 40 g/ha) | Injury evaluation, scale of 1-100, bleaching phenotype ([1]; 6.25 g/ha) | Injury evaluation, scale of 1-100, bleaching phenotype ([1]; 25 g/ha) | Injury evaluation, scale of 1-100, bleaching phenotype ([1]; 100 g/ha) | Injury evaluation, scale of 1-100, bleaching phenotype ([2]; 6.25 g/ha) | Injury evaluation, scale of 1-100, bleaching phenotype ([2]; 25 g/ha) | Injury evaluation, scale of 1-100, bleaching phenotype ([2]; 100 g/ha) | Injury evaluation, scale of 1-100, bleaching phenotype ([3]; 6.25 g/ha) | Injury evaluation, scale of 1-100, bleaching phenotype ([3]; 25 g/ha) | Injury evaluation, scale of 1-100, bleaching phenotype ([3]; 100 g/ha) |
| --- | --- | --- | --- | --- | --- | --- | --- | --- | --- | --- | --- | --- | --- | --- | --- | --- | --- | --- |
| CC1(C)c2cccnc2C(O)=C(c2ccc(Cl)nc2Cl)S1(=O)=O [Inhibitor 2, 7-(2,6-dichloro-3-pyridyl)-5,5-dimethyl-6,6-dioxo-thiopyrano[4,3-b]pyridin-8-ol] | 1 | 1 | 2 | 4 | 5 | 10 | 11 | 17 | 23 | – | – | – | – | – | – | – | – | – |
| Cc1c(C(=O)c2cnn(C)c2O)ccc(S(C)(=O)=O)c1C1=NOCC1 [Topramezone, reference compound] | – | – | – | – | – | – | – | – | – | 1 | 10 | 19 | 4 | 8 | 23 | 21 | 22 | 25 |
